Target: T1, ATP6V1C1 (Homo sapiens, UniProt P21283)
T1 construct: human wild-type ATP6V1C1, N-terminal 6xHis tag, modified pET30a, expressed in E. coli BL21 (DE3)
Assay: ITC with purified recombinant protein; supported by CETSA/ITDRF (half-maximal destabilization […]) and TPP
Format: binding

T1 sequence (P21283 2-382): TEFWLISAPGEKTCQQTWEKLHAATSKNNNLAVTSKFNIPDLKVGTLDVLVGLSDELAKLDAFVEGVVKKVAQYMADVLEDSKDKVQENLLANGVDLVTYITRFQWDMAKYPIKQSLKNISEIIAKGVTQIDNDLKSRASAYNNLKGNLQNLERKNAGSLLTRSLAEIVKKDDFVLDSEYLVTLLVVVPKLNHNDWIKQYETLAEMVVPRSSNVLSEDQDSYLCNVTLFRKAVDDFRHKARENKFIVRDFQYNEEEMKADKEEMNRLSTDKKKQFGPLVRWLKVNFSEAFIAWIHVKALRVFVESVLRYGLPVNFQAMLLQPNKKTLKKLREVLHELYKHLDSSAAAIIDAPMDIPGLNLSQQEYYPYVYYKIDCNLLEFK

## Cc1c([C@H](C)[C@@H]2NC[C@@H](C)C[C@H]2O)ccc2c1C[C@H]1[C@H]2CC=C2C[C@@H](O)CC[C@@]21C [VAM, veratramine]
  Kd: 1170 nM
